Experimental data from patent US5004780A, “Cyclic monoperoxyketal” (priority 1988, dated 1991).

How the values were obtained:
Type in all cases: physicochemical
[1] = Thermal decomposition of peroxyketal in cumene at 100° C.; conditions: 0.05 mol/l; for Half-life period: 50000 µM
Description: (§1) A 0.05 mol/l cumene solution of each of the cyclic monoperoxyketals of the present invention produced in Examples 1-6 and the cyclic bisperoxyketals produced in the same manner as described in Examples 1-6 was prepared. A given amount of each sample solution was sampled into a glass ampule, and the sample solution was deaerated by a freezing method, and then the ampule was sealed under vacuum. Then, the ampules were put in a thermostat kept at 100° C., and taken out from the thermostate every predetermined times, and the concentration of peroxyketal was measured by a gas chromatography or liquid chromatography. The decomposition rate constant and half-life period of a sample peroxyketal were calculated from the disappearing rate of the peroxyketal. The obtained results are shown in the following Table 1 as Examples 6-12 and Comparative examples 1-6.

[2] = Thermal decomposition product of peroxyketal in cumene (gas chromatography)
Description: Each of the thermal decomposition reaction solutions of Example 7 and Comparative example 1 was analyzed by means of a gas chromatography to measure the thermal decomposition products. The number of mols of the decomposition products per 1 mol of each of the decomposed peroxyketals was calculated. The obtained results are shown in the following Table 3 as Example 16 and Comparative example 7.

[3] = Amounts of ketone and alcohol formed by the thermal decomposition of peroxyketal in cumene; conditions: 100° C.
Description: The amount of ketone and that of alcohol contained in each of the thermal decomposition solutions obtained in Examples 6-12 and Comparative examples 1-6 were measured by means of a gas chromatography. The numbers of mols of ketone and alcohol per 1 mol of each of decomposed cyclic monoperoxyketal or cyclic bisperoxyketal were measured. The obtained results are shown in the following Table 4 as Examples 17-22 and Comparative examples 8-13.

[4] = Solubility of peroxyketal in unsaturated polyester resin; set-up: key: .circle.: Complete dissolving; Δ: Fairly long time was required in dissolving; X: Incomplete dissolving (white turbid)
[5] = Thermal decomposition of 1-methoxy-1-(1,1-dimethylethylperoxy)cyclohexane at 100° C. in n-hexane, n-dodecane or n-hexadecane; conditions: for Half-life period: 50000 µM
Description: as §1
Thermal decomposition of 1-methoxy-1-(1,1-dimethylethylperoxy)cyclohexane at 100° C. was carried out in the same manner as described in Example 7, except that n-hexane, n-dodecane or n-hexadecane was used as a solvent in place of cumene, and the thermal decomposition rate constant and half-life period of the cyclic monoperoxyketal in these solvents were measured.

[6] = n-hexadecane, viscosity 0.900 cp

For CC(C)(C)OOC1(OOC(C)(C)C)CCCCC1 [Comparative example 1, 1,1-bis(1,1-dimethylethylperoxy)cyclohexane, reference compound], the Decomposition rate constant [1] was 5.06 ×10^5 (1/sec), the Half-life period [1] was 3.81 h and the “Thermal decomposition product: 1,1-dimethylperoxyhexanoate” value ([2]; 100° C., 1,1-dimethylperoxyhexanoate) was 0.35 Number of mols per 1 mol of de. For the same molecule, the “Thermal decomposition product: biscumyl” value ([2]; 100° C.) was 0.69 Number of mols per 1 mol of de, the “Thermal decomposition product: t-butanol” value ([2]; 100° C.) was 1.06 Number of mols per 1 mol of de and the “Ratio of ketone to alcohol” value [3] was 0.01. For the same molecule, the “Thermal decomposition product: Alcohol” value [3] was 1.37 mols per 1 mol of decomposed p, the “Thermal decomposition product: Ketone” value [3] was 0.02 mols per 1 mol of decomposed p and the Solubility [4] was “.circle”.

For COC1(OOC(C)(C)C)CCCCC1 [Example 7, 1-methoxy-1-(1,1-dimethylethylperoxy)cyclohexane], the Decomposition rate constant [1] was 6.79 ×10^5 (1/sec), the Half-life period [1] was 2.84 h and the Decomposition rate constant ([5]; n-dodecane, viscosity 0.520 cp) was 4.71 ×10^5 (1/sec). The Half-life period ([5]; n-dodecane, viscosity 0.520 cp) was 4.09 h, the Decomposition rate constant [5, 6] was 4.23 ×10^5 (1/sec) and the Half-life period [5, 6] was 4.55 h. The Decomposition rate constant ([5]; n-hexane, viscosity 0.168 cp) was 5.13 ×10^5 (1/sec), the Half-life period ([5]; n-hexane, viscosity 0.168 cp) was 3.75 h and the “Thermal decomposition product: acetone” value ([2]; 100° C., acetone) was 0.10 Number of mols per 1 mol of de. The “Thermal decomposition product: biscumyl” value ([2]; 100° C.) was 0.50 Number of mols per 1 mol of de, the “Thermal decomposition product: methyl hexanoate” value ([2]; 100° C., methyl hexanoate) was 0.59 Number of mols per 1 mol of de and the “Thermal decomposition product: t-butanol” value ([2]; 100° C.) was 0.47 Number of mols per 1 mol of de. The “Ratio of ketone to alcohol” value [3] was 0.21, the “Thermal decomposition product: Alcohol” value [3] was 0.47 mols per 1 mol of decomposed p and the “Thermal decomposition product: Ketone” value [3] was 0.10 mols per 1 mol of decomposed p. The Solubility [4] was “.circle”.

For CCC(C)(C)OOC1(OC)CCCCC1 [Example 8, 1-methoxy-1-(1,1-dimethylpropylperoxy)cyclohexane], the Decomposition rate constant [1] was 10.58 ×10^5 (1/sec), the Half-life period [1] was 1.82 h and the “Ratio of ketone to alcohol” value [3] was 5.71. The “Thermal decomposition product: Alcohol” value [3] was 0.14 mols per 1 mol of decomposed p, the “Thermal decomposition product: Ketone” value [3] was 0.80 mols per 1 mol of decomposed p and the Solubility [4] was “.circle”.

With CCCC(C)(C)OOC1(OC)CCCCC1 [Example 9, 1-methoxy-1-(1,1-dimethylbutylperoxy)cyclohexane] the Decomposition rate constant [1] was 11.20 ×10^5 (1/sec), the Half-life period [1] was 1.72 h and the “Ratio of ketone to alcohol” value [3] was 2.26. For the same molecule, the “Thermal decomposition product: Alcohol” value [3] was 0.31 mols per 1 mol of decomposed p, the “Thermal decomposition product: Ketone” value [3] was 0.70 mols per 1 mol of decomposed p and the Solubility [4] was “.circle”.

For COC1(OOC(C)(C)CC(C)(C)C)CCCCC1 [Example 10, 1-methoxy-1-(1,1,3,3-tetramethylbutylperoxy)cyclohexane], the Decomposition rate constant [1] was 28.40 ×10^5 (1/sec), the Half-life period [1] was 0.68 h and the “Ratio of ketone to alcohol” value [3] was 79.0. For the same molecule, the “Thermal decomposition product: Alcohol” value [3] was 0.01 mols per 1 mol of decomposed p, the “Thermal decomposition product: Ketone” value [3] was 0.79 mols per 1 mol of decomposed p and the Solubility [4] was “.circle”.

In the case of COC1(OOC(C)(C)c2ccccc2)CCCCC1 [Example 11, 1-methoxy-1-(1-methyl-1-phenylethylperoxy)cyclohexane], the Decomposition rate constant [1] is reported as 11.32 ×10^5 (1/sec), the Half-life period [1] is reported as 1.70 h and the “Ratio of ketone to alcohol” value [3] is reported as 0.42. For the same molecule, the “Thermal decomposition product: Alcohol” value [3] was 0.60 mols per 1 mol of decomposed p, the “Thermal decomposition product: Ketone (Acetophenone is formed)” value [3] was 0.25 mols per 1 mol of decomposed p and the Solubility [4] was “.circle”.

In the case of CCCC(C)(C)OOC1(OC)CC(C)CC(C)(C)C1 (centres unmarked) [Example 12, 1-methoxy-1-(1,1-dimethylbutylperoxy)-3,3,5-trimethylcyclohexane], the Decomposition rate constant [1] is reported as 11.25 ×10^5 (1/sec), the Half-life period [1] is reported as 1.71 h and the “Ratio of ketone to alcohol” value [3] is reported as 2.27. For the same molecule, the “Thermal decomposition product: Alcohol” value [3] was 0.30 mols per 1 mol of decomposed p, the “Thermal decomposition product: Ketone” value [3] was 0.68 mols per 1 mol of decomposed p and the Solubility [4] was “.circle”.

With CCC(C)(C)OOC1(OOC(C)(C)CC)CCCCC1 [compound 2, 1,1-bis(1,1-dimethylpropylperoxy)cyclohexane, reference compound] the Decomposition rate constant [1] was 7.32 ×10^5 (1/sec), the Half-life period [1] was 2.63 h and the “Ratio of ketone to alcohol” value [3] was 2.81. For the same molecule, the “Thermal decomposition product: Alcohol” value [3] was 0.26 mols per 1 mol of decomposed p, the “Thermal decomposition product: Ketone” value [3] was 0.73 mols per 1 mol of decomposed p and the Solubility [4] was “Δ”.

With CCCC(C)(C)OOC1(OOC(C)(C)CCC)CCCCC1 [compound 3, 1,1-bis(1,1-dimethylbutylperoxy)cyclohexane, reference compound] the Decomposition rate constant [1] was 7.48 ×10^5 (1/sec), the Half-life period [1] was 2.57 h and the “Ratio of ketone to alcohol” value [3] was 1.28. The “Thermal decomposition product: Alcohol” value [3] was 0.65 mols per 1 mol of decomposed p, the “Thermal decomposition product: Ketone” value [3] was 0.83 mols per 1 mol of decomposed p and the Solubility [4] was “Δ”.

With CC(C)(C)CC(C)(C)OOC1(OOC(C)(C)CC(C)(C)C)CCCCC1 [compound 4, 1,1-bis(1,1,3,3-tetramethylbutylperoxy)cyclohexane, reference compound] the Decomposition rate constant [1] was 19.83 ×10^5 (1/sec), the Half-life period [1] was 0.97 h and the “Ratio of ketone to alcohol” value [3] was 1.21. For the same molecule, the “Thermal decomposition product: Alcohol” value [3] was 0.24 mols per 1 mol of decomposed p, the “Thermal decomposition product: Ketone” value [3] was 0.29 mols per 1 mol of decomposed p and the Solubility [4] was “X”.

With CC(C)(OOC1(OOC(C)(C)c2ccccc2)CCCCC1)c1ccccc1 [compound 5, 1,1-bis(1-methyl-1-phenylethylperoxy)cyclohexane, reference compound] the Decomposition rate constant [1] was 8.24 ×10^5 (1/sec), the Half-life period [1] was 2.34 h and the “Ratio of ketone to alcohol” value [3] was 0.41. The “Thermal decomposition product: Alcohol” value [3] was 1.00 mols per 1 mol of decomposed p, the “Thermal decomposition product: Ketone (Acetophenone is formed)” value [3] was 0.41 mols per 1 mol of decomposed p and the Solubility [4] was “.circle”.

For CCCC(C)(C)OOC1(OOC(C)(C)CCC)CC(C)CC(C)(C)C1 (centres unmarked) [compound 6, 1,1-bis(1,1-dimethylbutylperoxy)-3,3,5-trimethylcyclohexane, reference compound], the Decomposition rate constant [1] was 7.50 ×10^5 (1/sec), the Half-life period [1] was 2.57 h and the “Ratio of ketone to alcohol” value [3] was 1.25. The “Thermal decomposition product: Alcohol” value [3] was 0.64 mols per 1 mol of decomposed p, the “Thermal decomposition product: Ketone” value [3] was 0.80 mols per 1 mol of decomposed p and the Solubility [4] was “Δ”.

In the case of CC(C)(C)OOC(=O)c1ccccc1 [compound 28, 1,1-dimethylethyl peroxybenzoate], the Solubility [4] is reported as “.circle”.
